Legend:
Assay type in all cases: in vivo
[1] = tested on: South American brown stink bug, Euschistus heros; assay: Bean-piece dip bioassay on third-instar nymphs of South American brown stink bug (Example 6); details: Compound I alone, dose rate 0.04 weight %, treated bean pieces
Source text: (§1) The method described in Colby S. R., “Calculating Synergistic and Antagonistic Responses of Herbicide Combinations,” Weeds, 1967, 15, 20-22 was used to determine an existence of synergic effect between the sulfoximine-based nAChR agonist compound and the pesticide (I), (II) or any agriculturally acceptable salt thereof in the formulated pesticidal composition. In this method, the percent insect control of the formulated pesticidal composition as observed in the study was compared to the “expected” percent control (E) as calculated by equation (1) (hereinafter “Colby's equation”) below: […]
The active compounds were formulated in a 10% acetone solution with 0.025% non-ionic surfactant, TWEEN® 20. Bioassays were performed for each different active solution. Bean pieces (about one inch-long) were used for the tests. Four bean pieces were placed in each tested active solution and left there for 10 minutes. Bean pieces were taken out of the active solution, and each piece was placed in a well in a 32-well tray and allowed to air dry. Three third-instar nymphs of South American brown stink bug, Euschistus heros, were infested into each well.

[2] = tested on: Western flower thrips, Frankliniella occidentalis; assay: Cotton leaf punch dip bioassay on larval stage 2 nymphs of Western flower thrips (Examples 7A-7D); details: Compound I alone, dose rate 0.04 weight %, treated cotton leaf punches
Source text: as §1
The active compounds were formulated in a 10% acetone solution with 0.025% non-ionic surfactant, TWEEN® 20. Cotton leaf punches were used for bioassays. Two cotton leaf punches were placed in each solution and left there for 10 minutes. Leaves were taken out of the solution, placed on a piece of filter paper in separated Petri dishes, and air dried. Each leaf disc was considered a repetition. Five larval stage 2 nymphs of Western flower thrips, Frankliniella occidentalis, were infested per repetition.

[3] = tested on: brown stink bug, Euschistus heros; assay: Diet-treatment bioassay on second-instar nymphs of brown stink bug (Examples 5A, 5B); details: Compound II alone, dose rate 0.04 weight %, applied to diet
Source text: as §1
The percent control of the pesticidal composition against brown stink bug, Euschistus heros, was determined as the “Observed” action, and compared to those obtained by using about 0.04 weight % of Compound II, and using about 0.000156 weight % of sulfoxaflor alone. The “Colby's Expected Action” was calculated using Colby's equation as discussed previously.

CCN(C(=O)CCSCCC(F)(F)F)c1cn(-c2cccnc2)nc1Cl [Compound I, N-(3-chloro-1-(pyridin-3-yl)-1H-pyrazol-4-yl)-N-ethyl-3-((3,3,3-trifluoropropyl)thio)propanamide]
% Control Four Days After Treatment [1]: 0% | % Control Three Days After Treatment [2]: 0%

CCN(C(=O)CC[S+]([O-])CCC(F)(F)F)c1cn(-c2cccnc2)nc1Cl (stereo not drawn) [Compound II, N-(3-chloro-1-(pyridin-3-yl)-1H-pyrazol-4-yl)-N-ethyl-3-((3,3,3-trifluoropropyl)sulfinyl)propanamide]
% Control Six Days After Treatment [3]: no control

— US9788545B2, “Synergistic pesticidal compositions and related methods” (Dow AgroSciences LLC, priority 2013, dated 2017)
